Values quoted from earlier work in patent US9023417B2, “Use of a polyamine-poor composition for the production of a medical human food” (Univeriste de Rennes 1, priority 2003, dated 2015).

Tested on: Escherischia coli

Structure (SMILES) | inhibition of the synthesis of polyamines in Escherischia coli
C[C@](N)(CCCN)C(=O)O [Alpha-methylornithine, alpha-methylornithine] | inhibiting the synthesis of polyamines
NCCC[C@](N)(C(=O)O)C(F)F [a-DFMO, 2-difluoromethylornithine] | not the case
